Measured values from patent US20090028804A1, “AhR mediators” (SYMRISE GmbH & Co. KG, priority 2005, published 2009).
Where two headings read alike, the source gives them in different places.

Assays:
MMP-1 = conditions: cited from earlier work
[1] = Photostability on irradiation with UVB radiation; assay type: physicochemical; conditions: photostable = no more than 10 mol % converted on UVB (40 W/m^2) for 2 hours
Procedure: For the purposes of the present invention, a photostable substance is one which, on irradiation with UVB radiation (40 W/m^2) for 2 hours, is no more than 10 mol % converted into one or more other substances. All-trans-retinoic acid, for example, is accordingly not a preferred AhR antagonist, as this substance is photolabile.

AhR [2] = biological target: T1, AhR (Homo sapiens, UniProt P35869); design: host or cells: oral human keratinocyte cancer cells; conditions: cited from earlier work
T1 sequence (P35869 11-848): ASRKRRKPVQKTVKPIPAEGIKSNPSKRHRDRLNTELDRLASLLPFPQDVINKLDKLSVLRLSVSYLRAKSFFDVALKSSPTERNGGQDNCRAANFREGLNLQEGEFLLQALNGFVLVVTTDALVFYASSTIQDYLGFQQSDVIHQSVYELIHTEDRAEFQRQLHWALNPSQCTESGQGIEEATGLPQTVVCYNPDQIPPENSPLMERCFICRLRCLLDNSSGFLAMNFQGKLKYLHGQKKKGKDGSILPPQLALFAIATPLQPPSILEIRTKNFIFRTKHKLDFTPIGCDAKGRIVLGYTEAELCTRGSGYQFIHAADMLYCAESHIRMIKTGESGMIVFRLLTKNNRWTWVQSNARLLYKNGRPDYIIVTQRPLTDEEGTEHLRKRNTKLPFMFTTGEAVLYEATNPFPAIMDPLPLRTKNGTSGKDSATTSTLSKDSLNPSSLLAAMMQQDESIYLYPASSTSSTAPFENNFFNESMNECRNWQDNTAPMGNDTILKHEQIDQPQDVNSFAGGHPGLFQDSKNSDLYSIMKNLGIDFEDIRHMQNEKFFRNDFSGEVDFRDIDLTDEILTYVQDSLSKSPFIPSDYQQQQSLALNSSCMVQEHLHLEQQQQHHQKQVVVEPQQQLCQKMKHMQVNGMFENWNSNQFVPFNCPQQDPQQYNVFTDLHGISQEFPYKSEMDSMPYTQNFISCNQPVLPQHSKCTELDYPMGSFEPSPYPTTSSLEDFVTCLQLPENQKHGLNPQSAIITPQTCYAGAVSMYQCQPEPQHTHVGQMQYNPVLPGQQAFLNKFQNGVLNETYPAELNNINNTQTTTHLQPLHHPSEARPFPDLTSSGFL

CYP1A1 = assay: UVB-induced CYP1A1 induction in HaCaT keratinocytes, real time RT-PCR; assay type: cell-based, human
Procedure: (§1) HaCaT keratinocytes were cultured in DMEM medium with 10% fetal calf serum. The cells were irradiated with UVB radiation in PBS (phosphate-buffered saline). For UVB irradiation, we used a TL20W/12RS lamp which contains four parallel tubes (Philips, Eindhoven, Netherlands) and emits the majority of its energy in the UVB range (290-320 nm). The emission peak of the lamp is at 310 nm. Control cells were subjected to identical treatment, but were not irradiated. In order to inhibit the AhR, the cells were treated with the test substance 1 h before irradiation.
HaCaT cells were irradiated with 100 J/m^2 of UVB. Some cells were pretreated with the test substance 1 h before irradiation. After 4 h, the RNA was prepared using the RNeasy kit (Qiagen, Hilden, Germany) in accordance with the manufacturer's instructions. Reverse transcription was carried out as described (Arch. Toxicol (2005) PMID 16205913). PCR fragments were amplified by means of real-time PCR in a LightCycler (Roche, Mannheim, Germany). The PCR mix was made up of 1/10 volume of QuantiTec® SYBR Green PCR Master Mixes F (Qiagen, Hilden, Germany), 0.5 μM of the particular primer, 2 μl of cDNA and DEPC-treated (diethyl pyrocarbonate-treated) H2O in a final volume of 20 μl. […] PCR conditions were as follows: 40 cycles of 15 sec 94° C. for denaturation, 25 sec 60° C. for primer attachment, 30 sec 72° C. for extension and 2 sec 72° C. for fluorescence measurement. […] The PCR products were quantified by means of a fragment-specific standard curve and analysis with LightCycler Software 3. […]
HaCaT cells were irradiated with 100 J/m^2 of UVB. […] The PCR mix was made up of 1/10 volume of QuantiTect® SYBR Green PCR Master Mixes (Qiagen, Hilden, Germany), 0.5 μM of the particular primer, 2 μl of cDNA and DEPC-treated (diethyl pyrocarbonate-treated) H2O in a final volume of 20 μl. […] PCR conditions were as follows: 40 cycles of 15 sec 94° C. for denaturation, 25 sec 60° C. for primer attachment, 30 sec 72° C. for extension and 2 sec 72° C. for fluorescence measurement. […]

AhR [3] = biological target: T1, AhR; assay: AhR translocation into the cell nucleus in HaCaT cells transfected with pEGFP-AhR plasmid; assay type: cell-based; design: host or cells: oral human keratinocyte cancer cells
Procedure: as §1
HaCaT cells were plated out onto chambered microscope slides with a cell density of 5×10^4 cells/chamber. Some were pretreated with the test substance for 1 h. After 24 h, said cells were transfected with the pEGFP-AhR plasmid by means of the FuGene 6 transfection reagent (Roche, Mannheim, Germany) in accordance with the manufacturer's instructions After a further 24 h, transfected cells were irradiated with […] of UVB. After 40 min, the cells were fixed for 10 min with 4% paraformaldehyde and washed with PBS. The microscope slides were dried and mounted with Vectashield Mounting Medium (Vector Laboratories, Burlingame, Calif., USA). The AhR coupled to the GFP was visualized by means of a fluorescence microscope (Olympus, Hamburg, Germany) and photographed with a ColorViewXS digital camera (Olympus).

AhR [4] = biological target: T1, AhR; conditions: human breast cancer cell line MCF-7; cited from earlier work
AhR [5] = biological target: T1, AhR; conditions: human liver cancer cell line HepG2; cited from earlier work
[6] = tested on: primary mouse melanocytes; assay: Melanin content of primary mouse melanocytes, photometric at 405 nm; assay type: cell-based
Procedure: The cells were removed, lysed with 0.1% Triton-X100, centrifuged and the melanin content from the lysate pellet was determined photometrically in an ELISA reader at 405 nm after cell disruption with 1M NH4OH (4 h, 85° C.). The blank reading, which contained only NH4OH, was subtracted from the absorption value. In parallel, the protein content of the lysate supernatants was determined by the Bradford method.
Semiconfluent primary mouse melanocytes (culture conditions as above) were further cultured for 7 days with 10 μM MNF. The cells were removed, lysed with 0.1% Triton-X100, centrifuged and the melanin content from the lysate pellet was determined photometrically in an ELISA reader at 405 nm after cell disruption with 1M NH4OH (4 h, 85° C.). The blank reading, which contained only NH4OH, was subtracted from the absorption value.

AhR [7] = biological target: T1, AhR; assay: AhR translocation in primary mouse melanocytes transfected with pEGFP-AhR plasmid; assay type: cell-based; design: expressed in transfected cells; host or cells: primary mouse melanocytes; conditions: in the presence and absence of benzo[a]pyrene
Procedure: Primary mouse melanocyte cells were plated out onto chambered microscope slides. Individual chambers were treated for 1 h with the test substances. After 24 h, the cells were transfected with the pEGFP-AhR plasmid. After a further 40 min, the cells were fixed. The microscope slides were evaluated by fluorescence microscopy. Translocation of the AhR, which is coupled to the GFP and thus fluoresces green, from the cytoplasm into the cell nucleus is visible.

AhR [8] = biological target: T1, AhR; conditions: human breast epithelium cells; cited from earlier work
[9] = in the absence of UVB radiation

CC1=C(/C=C/C(C)=C/C=C/C(C)=C/C(=O)O)C(C)(C)CCC1 [All-trans-retinoic acid]
TCDD-induced expression of MMP-1 (MMP-1): enhancing TCDD-induced expression of MMP-1 | photostability [1]: photolabile | AhR activity (AhR [2]; in the absence of TCDD): without influencing AhR activity | TCDD-induced AhR activation (AhR [2]; normal human keratinocytes): inhibits TCDD-induced AhR activation

C/C=C/c1cc(OC)c2c(c1)C(C)C(c1ccc(O)c(OC)c1)O2 (stereo not drawn) [Compound (X)]
CYP1A1 inhibition in the presence of UVB light (CYP1A1; 0.0001 wt. %, HaCaT, 100 J/m^2 UVB, relative to control (PBS without test substances with 0.1% DMSO, UVB-irradiated)): 20% | induction of CYP1A1 as a result of AhR activation in the presence of UVB light (CYP1A1; HaCaT, UVB light): inhibited induction of CYP1A1 | induction of an AhR-inducible gene, in particular CYP1A1, by the compound itself (CYP1A1; [9]): does not itself bring about induction | translocation of AhR from the cytoplasm into the cell nucleus induced by the compound itself (AhR [3]; [9]): do not induce translocation of AhR

O=c1c(O)c(-c2ccc(O)c(O)c2)oc2cc(O)cc(O)c12 [quercetin]
action of AhR (AhR [4]): prevents the action of AhR | action of AhR (AhR [5]): has no effect

O=c1cc(-c2ccc(O)c(O)c2)oc2cc(O)cc(O)c12 [luteolin]
action of AhR (AhR [4]): has no effect | action of AhR (AhR [5]): acts as an AhR inhibitor

O=Cc1c2[nH]c3ccccc3c2cc2[nH]c3ccccc3c12 [FICZ, formylindolo(3,2b)carbazole]
melanin content versus untreated cells ([6]; 2 days with UVB-irradiated 50 mM tryptophan solution containing FICZ, p<0.05 (FIG. 3)): significantly more melanin | AhR translocation into the cell nucleus (AhR [7]): stimulated AhR translocation

COc1cc(-c2cc(=O)c3ccccc3o2)ccc1[N+](=O)[O-] [3-methoxy-4-nitroflavone]
melanin content versus untreated cells ([6]; 10 μM, 7 days, p<0.05 (FIG. 4)): significantly less melanin | AhR translocation into the cell nucleus (AhR [7]): inhibited AhR translocation | AhR translocation into the cell nucleus (AhR [3]; HaCaT, in the presence and absence of UVB light): inhibited AhR translocation

O=C1c2ccccc2-c2n[nH]c3cccc1c23 [anthra[1,9-cd]pyrazol-6(2H)-one]
action of the AhR agonist TCDD (AhR [8]): capable of inhibiting the action
